{"source": "patent US10969380B2", "about": "“Simultaneous detection of cannibalism and senescence as prognostic marker for cancer” (Institut Gustave-Roussy, priority 2012, dated 2021)", "type_in_all_cases": "cell-based, human", "key": {"HCT116 cells [1]": {"test_system": "HCT116 cells", "test": "Cell-in-cell structures (cellular cannibalism) by confocal microscopy of CMFDA/CMTMR-labelled cocultures", "conditions": "for generation of cell-in-cell structures after supplementation with nucleotide: ATP or UTP supplementation, ROCK-dependent; for generation of cell-in-cell structures after TP53 inactivation in presence of inhibitor: TP53 inactivated by PFT-α, knockdown or knockout, 20 μM Y27632 or 100 μM z-VAD", "description": "FIG. 1. Identification of TP53 as repressor of cellular cannibalism. (A) Schematic representation of experimental procedure used to evaluate the ability to tumor suppressive depletion to enhance cell in cell internalization. (B) Frequencies of cell-in-cell structures induced by depletion of tumor suppressive proteins in HCT116. After 48 hours of transfection indicated siRNA, colorectal HCT116 cells were stained with CMTMR and CMFDA cell trachers, mixed and cultured during 24 hours. Quantification of cell-in-cell structures induced by depletions of tumor suppressor proteins was realized by confocal microscopy. The frequencies of cell-in-cell structures were determined for at least 300 cells in 3 independent experiments (mean+/−s.e.m, p<0.001). (C) Detection of cell-in-cell structures induced by depletion of TP53, as visualized by confocal microscopy. […] Representative micrographs of xy (scale bar, 5 μm), xz (scale bar, 4 μm) and yz (scale bar, 1 μm) optical sections are shown. Images are representative of at least four independent experiments. (D) Representative micrographs of cell-in-cell structures showing that after depletion of TP53 by two specific siRNAs, (red) CMTR labeled HCT116 cells internalized (red) CMTR labeled HCT116 cells (noted R(R)) or (green) CMFDA labeled HCT116 cells (noted R(G)), and (green) CMFDA labeled HCT116 cells engulfed (red) CMTR labeled HCT116 cells (noted G(R)) or (green) CMFDA labeled HCT116 cells (noted G(G)) (scale, 5 μm). (E) Frequencies of cell-in-cell structures showing R(R), R(G), G(R) or G(G) cell internalization detected after depletion of TP53 by two distinct siRNAs (as compare to control). The frequencies of cell-in-cell structures were determined for at least 300 cells in 3 independent experiments (mean+/−s.e.m, p<0.001). (F) Cell-in-cell structures induced by 10 μM PFT-α, TP53 knockdown, or TP53 knockout in HCT116. Cell-in-cell structures were identified by b-catenin (white), CMFDA (green) and CMTMR (red) staining of internalizing HCT116 cells. Images are representative of at least four independent experiments (scale bar in a, 5 μm and scale bar in b 1 μm). (G) Frequencies of cell-in-cell structures induced by 10 μM PFT-α, TP53 knockdown, or TP53 knockout in HCT116 in presence or in absence of 20 μM of ROCK inhibitor (Y27632) or 100 μM of pan-caspase inhibitor (z-VAD). The frequencies of cell-in-cell structures were determined for at least 300 cells in 3 independent experiments (mean+/−s.e.m, p<0.001). (H) Detection of cell-in-cell structures in TP53 depleted human diploid fibroblasts strain WI38, as visualized by confocal microscopy. […] Representative micrographs of xy (scale bar, 5 μm), xz (scale bar, 4 μm) and yz (scale bar, 1 μm) optical sections are shown. Images are representative of at least four independent experiments. (1) Frequencies of cell-in-cell structures induced by depletion of TP53 in human diploid fibroblasts strain WI38. The frequencies of cell-in-cell structures were determined for at least 300 cells in 3 independent experiments (mean+/−s.e.m, p<0.001).\nAfter inactivation of TP53 or Δ133TP53, primary human fibroblasts, primary human keratinocytes, colorectal carcinoma Tp53^+/+ HCT116 cells and pancreatic PANC813 cells were incubated during 24 hours in presence or in absence of indicated concentrations of the pharmacological inhibitor of purinergic P2Y2 receptor Kaempferol (Sigma), the pharmacological inhibitor of ROCK Y27632 (Sigma) or the pan-caspase inhibitor zVAD-fmk (100 uM, BD Biosciences), ATP, UTP and soluble apyrase used in indicated experiments were obtained from Sigma.\nAfter 48 hours of transfection with specific indicated siRNA, cells were stained with 10 μM of 5-chloromethylfluorescein diacetate (Cell Tracker Green CMFDA, Invitrogen) or with 10 μM of 5-(and-6)-(((4-Chloromethyl)Benzoyl)Amino)Tetramethylrhodamine (CMTMR, Invitrogen) and cocultured for indicated time. […]"}, "caspase-3": {"test_system": "caspase-3", "test": "Cleavage of caspase-3 by immunoblot", "design": "dose or concentration left out as unconfirmed", "conditions": "cisplatin, positive control", "description": "FIG. 7. Effects of TP53 inactivation on cellular cannibalism. (A) Detection of cell-in-cell structures induced by depletion of TP53, as visualized by confocal microscopy. […] Images are representative of at least four independent experiments. (B) Detection of cell-in-cell structures induced by depletion of TP53 by light microscopy. (C) Time-lapse imaging of cellular cannibalism detected after depletion of TP53 on HCT116 cells. After 48 hours of transfection with siRNA against TP53, cells were stained as previously described with CMFDA and CMTMR cell trackers and cocultured under time-lapse confocal videomicroscopy. Indicated numbers represent hours and minutes. […] After 48 hours of TP53 knockdown, cleavage of caspase-3 was analyzed by immunoblot. […] Mitotic events and cellular cannibalism were detected and recorded during approximately fifteen hours. […] ROCK activity was determined by detecting the phosphorylation of myosin light chain 2 on serine 19 (MLC2S19*). […] TP53 knocked down, or TP53 knocked out HCT116 cells were analyzed for MLC2S19*, MLC2 or TP53 by immunoblot. […] Tp53^−/+ and Tp53^−/− HCT116 cells are fixed and analyzed by electron microscopy. […] HCT116 cells were transfected with specific siRNAs for TP53 during 48 hours and expression of TP53 (H) or MLCS19* (I) were determined by immunoblots. […]"}, "HCT116 cells [2]": {"test_system": "HCT116 cells", "test": "Release of ATP by ATP-dependent bioluminescence (Enliten ATP assay)", "conditions": "HCT116 treated with 10 μM CDDP", "description": "FIG. 11. Extracellular ATP and purinergic receptor P2Y2 participate in cellular cannibalism. (A.) Detection of cellular cannibalism after cis-platinium (CDDP) or γ-irradiation (IR) treatment. After 24 hours treatment with 10 μM CDDP or irradiation (IR) with 4 grays, half cell population of colon carcinoma HCT116 cells were stained with green CMFDA cell tracker or with red CMTMR cell tracker and analyzed for cellular cannibalism by confocal microscopy after 24 hours of coculture in presence or in absence of 20 μM of ROCK inhibitor (YI27632) or 100 μM of pan-caspase inhibitor (zVAD). The frequencies of cannibal cells were determined for at least 300 cells in 3 independent experiments (mean+/−s.e.m, *p<0.001). (B-D) Detection of ATP release after stimulation with senescent-induced stresses. Release of ATP on HCT116 cells treated with 10 μM CDDP (B) or 4 gray γ-irradiation (IR) (B) Of depleted for p53 (C) or Δ133p53 (C) was determined 2 hours after the beginning of coculture using ATP-dependent bioluminescence in 3 independent experiments, (D) Effect of ROCK inhibitor on ATP release detected after p53 inactivation. Release of ATP was detected as previously described in presence or in absence of 20 μM of Y27632 (mean+/−s.e.m, *p<0.001). […] The frequencies of cell-in-cell structures were determined for at least 300 cells in 3 independent experiments (mean+/−s.e.m, *p<0.001). […]"}, "[3]": {"test_system": "P2Y2 purinergic receptors", "test": "P2Y2 expression by immunoblot", "conditions": "HCT116 treated with 10 μM CDDP"}}}
{"molecule": "Nc1ncnc2c1ncn2C1OC(CO[P@SP3](=O)(O)O[P@SP3](=O)(O)O[P@SP3](=O)(O)O)C(O)C1O", "note": "(stereo not drawn) [ATP, Adenosine-5′-triphosphate]", "values": [{"measurement": "generation of cell-in-cell structures after supplementation with nucleotide", "setting": "HCT116 cells [1]; HCT116", "value": "strongly enhanced the ROCK-dependent generation of cell-in-cell structures"}]}
{"molecule": "O=c1ccn([C@@H]2O[C@H](COP(=O)(O)OP(=O)(O)OP(=O)(O)O)[C@@H](O)[C@H]2O)c(=O)[nH]1", "note": "[UTP]", "values": [{"measurement": "generation of cell-in-cell structures after supplementation with nucleotide", "setting": "HCT116 cells [1]; HCT116", "value": "strongly enhanced the ROCK-dependent generation of cell-in-cell structures"}]}
{"molecule": "C[C@@H](N)[C@H]1CC[C@H](C(=O)Nc2ccncc2)CC1", "note": "[Y26732]", "values": [{"measurement": "generation of cell-in-cell structures after TP53 inactivation in presence of inhibitor", "setting": "HCT116 cells [1]", "value": "prevented the generation of cell-in-cell structures"}]}
{"molecule": "N.N.[Cl][Pt][Cl]", "note": "[cisplatin]", "values": [{"measurement": "cleavage of caspase-3", "setting": "caspase-3", "value": "intense cleavage of caspase-3"}, {"measurement": "release of ATP", "setting": "HCT116 cells [2]", "value": "released ATP shortly after treatments"}, {"measurement": "expression of the P2Y2 purinergic receptors", "setting": "[3]", "value": "enhanced the expression of the P2Y2 purinergic receptors"}]}
{"molecule": "Cc1ccc(C(=O)Cn2c3c(sc2=N)CCCC3)cc1", "note": "[pifithrin-α]", "values": [{"measurement": "cell-in-cell structures induced by pharmacological inactivation of TP53", "setting": "HCT116 cells [1]; HCT116, 10 μM PFT-α, 24 hours coculture", "value": "induced cell-in-cell structures"}]}
{"molecule": "Z-VAD-fmk", "values": [{"measurement": "generation of cell-in-cell structures after TP53 inactivation in presence of inhibitor", "setting": "HCT116 cells [1]", "value": "not affected"}]}
{"molecule": "apyrase", "values": [{"measurement": "cellular internalization induced by the depletion of TP53 or Δ133TP53", "setting": "HCT116 cells [1]; HCT116, different concentrations of apyrase", "value": "reduced cellular internalization"}]}
